Reference: ChEMBL document CHEMBL5038633 (J Med Chem, 2022)
Calls of active or inactive are those of the source. The rule behind the calls is not given here. Where a SMILES comes first, the peptide text is derived from it. Bridges are numbered along the chain shown (N, C = ends).

Key:
[1] = target: T1, Sodium channel protein type 9 subunit alpha (Homo sapiens, UniProt Q15858); assay: Inhibition of human Nav1.7 stably expressed in cells with train pulses to -20 mV at 0.1 Hz and holding potential of -95 mV by Qube-automated patch clamp assay; format: cell-based
T1 sequence (Q15858 whole entry): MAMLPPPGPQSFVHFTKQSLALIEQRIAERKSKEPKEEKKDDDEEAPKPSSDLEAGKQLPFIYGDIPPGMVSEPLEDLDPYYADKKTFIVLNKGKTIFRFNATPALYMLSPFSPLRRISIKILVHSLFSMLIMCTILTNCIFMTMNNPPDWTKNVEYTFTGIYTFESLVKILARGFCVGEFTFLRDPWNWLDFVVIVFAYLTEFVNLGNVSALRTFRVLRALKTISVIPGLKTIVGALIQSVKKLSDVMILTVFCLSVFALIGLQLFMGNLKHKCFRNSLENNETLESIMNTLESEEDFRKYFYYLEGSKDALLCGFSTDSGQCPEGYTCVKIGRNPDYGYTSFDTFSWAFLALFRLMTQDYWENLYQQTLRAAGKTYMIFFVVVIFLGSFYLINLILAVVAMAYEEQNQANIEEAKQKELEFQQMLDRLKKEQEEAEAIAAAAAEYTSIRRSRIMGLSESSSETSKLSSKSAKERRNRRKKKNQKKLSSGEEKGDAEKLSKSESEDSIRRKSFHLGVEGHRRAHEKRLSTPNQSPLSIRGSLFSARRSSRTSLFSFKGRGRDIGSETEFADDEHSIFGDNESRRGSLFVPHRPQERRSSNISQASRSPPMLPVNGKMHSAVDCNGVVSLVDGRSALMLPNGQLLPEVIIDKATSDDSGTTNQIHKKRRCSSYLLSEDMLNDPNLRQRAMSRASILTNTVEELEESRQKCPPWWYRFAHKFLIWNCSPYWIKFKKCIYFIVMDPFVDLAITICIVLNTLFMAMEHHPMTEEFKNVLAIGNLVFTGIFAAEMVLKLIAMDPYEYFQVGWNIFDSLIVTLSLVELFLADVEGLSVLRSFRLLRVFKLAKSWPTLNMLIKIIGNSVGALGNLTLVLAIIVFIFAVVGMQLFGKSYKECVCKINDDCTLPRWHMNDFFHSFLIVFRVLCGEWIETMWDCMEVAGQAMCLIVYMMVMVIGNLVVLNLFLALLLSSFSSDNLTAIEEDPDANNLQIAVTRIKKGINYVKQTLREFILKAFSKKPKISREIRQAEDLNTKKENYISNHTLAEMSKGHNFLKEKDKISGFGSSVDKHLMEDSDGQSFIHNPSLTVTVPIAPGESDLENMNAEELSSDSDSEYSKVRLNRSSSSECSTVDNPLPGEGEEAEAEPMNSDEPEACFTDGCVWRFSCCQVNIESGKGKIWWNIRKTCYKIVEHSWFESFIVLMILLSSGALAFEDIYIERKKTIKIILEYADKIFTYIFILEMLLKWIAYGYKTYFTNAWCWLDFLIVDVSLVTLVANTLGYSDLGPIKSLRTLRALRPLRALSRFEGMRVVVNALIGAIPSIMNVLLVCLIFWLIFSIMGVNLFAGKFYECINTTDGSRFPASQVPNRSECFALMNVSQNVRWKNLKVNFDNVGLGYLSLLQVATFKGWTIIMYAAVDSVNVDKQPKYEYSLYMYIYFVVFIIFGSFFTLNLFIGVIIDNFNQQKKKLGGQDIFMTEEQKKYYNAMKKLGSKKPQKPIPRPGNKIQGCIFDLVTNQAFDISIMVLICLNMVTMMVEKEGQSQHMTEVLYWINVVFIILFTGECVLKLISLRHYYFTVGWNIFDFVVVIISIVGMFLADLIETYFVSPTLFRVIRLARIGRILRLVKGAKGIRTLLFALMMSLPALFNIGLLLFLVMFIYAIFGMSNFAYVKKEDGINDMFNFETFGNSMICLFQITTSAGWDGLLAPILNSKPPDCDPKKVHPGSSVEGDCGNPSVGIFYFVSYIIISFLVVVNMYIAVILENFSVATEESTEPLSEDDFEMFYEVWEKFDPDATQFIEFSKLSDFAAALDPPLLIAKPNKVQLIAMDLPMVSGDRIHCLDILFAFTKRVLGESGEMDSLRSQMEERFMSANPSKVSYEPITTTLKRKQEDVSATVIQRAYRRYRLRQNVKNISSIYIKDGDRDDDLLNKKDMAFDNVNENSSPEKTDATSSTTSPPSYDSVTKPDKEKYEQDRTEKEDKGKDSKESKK

[2] = Ratio of IC50 for inhibition of rat Nav1.7 stably expressed in cells to EC50 for antinociceptive activity against Sprague-Dawley rat model of thermal stimuli induced nociception assessed as concentration required for maximal tail flick withdrawal latency; format: functional
[3] = target: Voltage-gated inwardly rectifying potassium channel KCNH2 (Homo sapiens, UniProt Q12809); assay: Inhibition of human ERG by PatchXpress assay; format: toxicity
Voltage-gated inwardly rectifying potassium channel KCNH2, sequence (Q12809 whole entry): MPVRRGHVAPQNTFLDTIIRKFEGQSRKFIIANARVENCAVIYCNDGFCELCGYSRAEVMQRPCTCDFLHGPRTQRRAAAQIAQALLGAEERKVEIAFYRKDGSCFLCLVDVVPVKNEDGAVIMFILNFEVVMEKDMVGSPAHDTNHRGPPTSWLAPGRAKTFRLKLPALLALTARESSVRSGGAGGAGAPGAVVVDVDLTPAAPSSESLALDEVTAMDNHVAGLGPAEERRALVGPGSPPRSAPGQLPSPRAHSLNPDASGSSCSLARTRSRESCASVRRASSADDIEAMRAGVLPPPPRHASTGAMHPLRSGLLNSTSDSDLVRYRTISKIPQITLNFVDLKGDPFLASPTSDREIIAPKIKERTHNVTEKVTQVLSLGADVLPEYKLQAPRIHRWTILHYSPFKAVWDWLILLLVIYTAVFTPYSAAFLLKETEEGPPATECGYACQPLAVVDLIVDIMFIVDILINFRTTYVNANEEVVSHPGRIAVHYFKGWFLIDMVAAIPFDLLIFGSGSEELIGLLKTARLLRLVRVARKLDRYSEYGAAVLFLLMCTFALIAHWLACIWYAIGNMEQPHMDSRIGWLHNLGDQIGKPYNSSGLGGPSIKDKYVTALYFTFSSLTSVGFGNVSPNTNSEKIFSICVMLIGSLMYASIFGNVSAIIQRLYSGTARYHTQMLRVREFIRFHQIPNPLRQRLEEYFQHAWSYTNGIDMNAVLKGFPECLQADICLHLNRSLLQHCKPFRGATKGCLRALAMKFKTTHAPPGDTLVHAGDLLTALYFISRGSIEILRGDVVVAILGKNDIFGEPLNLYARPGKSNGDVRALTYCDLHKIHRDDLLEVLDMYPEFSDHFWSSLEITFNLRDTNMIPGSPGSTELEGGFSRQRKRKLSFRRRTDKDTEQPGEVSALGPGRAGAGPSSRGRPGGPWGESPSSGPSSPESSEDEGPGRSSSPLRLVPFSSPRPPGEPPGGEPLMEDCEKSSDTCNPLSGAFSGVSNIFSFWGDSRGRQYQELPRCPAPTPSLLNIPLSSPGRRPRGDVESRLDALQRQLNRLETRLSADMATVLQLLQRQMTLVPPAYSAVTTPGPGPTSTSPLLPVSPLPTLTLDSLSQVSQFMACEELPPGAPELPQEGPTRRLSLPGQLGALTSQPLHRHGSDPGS

Rattus norvegicus [4] = assay: Antinociceptive activity against Sprague-Dawley rat model of thermal stimuli induced nociception assessed as increase in tail withdrawal latency administered subcutaneously as single dose measured up to 24 hrs by tail flick test; format: functional, organism-based; details: time hrs <=24
[5] = target: Sodium channel protein type 8 subunit alpha (Homo sapiens, UniProt Q9UQD0); assay: Inhibition of human Nav1.6 stably expressed in cells with train pulses to -20 mV at 0.1 Hz and holding potential of -85 mV by whole-cell Qube-automated patch clamp assay; format: cell-based
Mast cell [6] = assay: Effect on mast cell degranulation in Wistar Han rat peritoneal lavage mast cells assessed as increase in maximum histamine level in plasma at upto 1 mg/kg, iv administered as bolus dose measured up to 24 hrs by LC/MS/MS analysis; format: functional, organism-based; details: dose mg/kg <=1, time hrs <=24
[7] = target: Sodium channel protein type 2 subunit alpha (Homo sapiens, UniProt Q99250); assay: Inhibition of human Nav1.2 stably expressed in cells with train pulses to -20 mV at 0.1 Hz and holding potential of -95 mV by Qube-automated patch clamp assay; format: cell-based
[8] = target: Sodium channel protein type 5 subunit alpha (Homo sapiens, UniProt Q14524); assay: Inhibition of human Nav1.5 by PatchXpress assay; format: toxicity
Sodium channel protein type 5 subunit alpha, sequence (Q14524 whole entry): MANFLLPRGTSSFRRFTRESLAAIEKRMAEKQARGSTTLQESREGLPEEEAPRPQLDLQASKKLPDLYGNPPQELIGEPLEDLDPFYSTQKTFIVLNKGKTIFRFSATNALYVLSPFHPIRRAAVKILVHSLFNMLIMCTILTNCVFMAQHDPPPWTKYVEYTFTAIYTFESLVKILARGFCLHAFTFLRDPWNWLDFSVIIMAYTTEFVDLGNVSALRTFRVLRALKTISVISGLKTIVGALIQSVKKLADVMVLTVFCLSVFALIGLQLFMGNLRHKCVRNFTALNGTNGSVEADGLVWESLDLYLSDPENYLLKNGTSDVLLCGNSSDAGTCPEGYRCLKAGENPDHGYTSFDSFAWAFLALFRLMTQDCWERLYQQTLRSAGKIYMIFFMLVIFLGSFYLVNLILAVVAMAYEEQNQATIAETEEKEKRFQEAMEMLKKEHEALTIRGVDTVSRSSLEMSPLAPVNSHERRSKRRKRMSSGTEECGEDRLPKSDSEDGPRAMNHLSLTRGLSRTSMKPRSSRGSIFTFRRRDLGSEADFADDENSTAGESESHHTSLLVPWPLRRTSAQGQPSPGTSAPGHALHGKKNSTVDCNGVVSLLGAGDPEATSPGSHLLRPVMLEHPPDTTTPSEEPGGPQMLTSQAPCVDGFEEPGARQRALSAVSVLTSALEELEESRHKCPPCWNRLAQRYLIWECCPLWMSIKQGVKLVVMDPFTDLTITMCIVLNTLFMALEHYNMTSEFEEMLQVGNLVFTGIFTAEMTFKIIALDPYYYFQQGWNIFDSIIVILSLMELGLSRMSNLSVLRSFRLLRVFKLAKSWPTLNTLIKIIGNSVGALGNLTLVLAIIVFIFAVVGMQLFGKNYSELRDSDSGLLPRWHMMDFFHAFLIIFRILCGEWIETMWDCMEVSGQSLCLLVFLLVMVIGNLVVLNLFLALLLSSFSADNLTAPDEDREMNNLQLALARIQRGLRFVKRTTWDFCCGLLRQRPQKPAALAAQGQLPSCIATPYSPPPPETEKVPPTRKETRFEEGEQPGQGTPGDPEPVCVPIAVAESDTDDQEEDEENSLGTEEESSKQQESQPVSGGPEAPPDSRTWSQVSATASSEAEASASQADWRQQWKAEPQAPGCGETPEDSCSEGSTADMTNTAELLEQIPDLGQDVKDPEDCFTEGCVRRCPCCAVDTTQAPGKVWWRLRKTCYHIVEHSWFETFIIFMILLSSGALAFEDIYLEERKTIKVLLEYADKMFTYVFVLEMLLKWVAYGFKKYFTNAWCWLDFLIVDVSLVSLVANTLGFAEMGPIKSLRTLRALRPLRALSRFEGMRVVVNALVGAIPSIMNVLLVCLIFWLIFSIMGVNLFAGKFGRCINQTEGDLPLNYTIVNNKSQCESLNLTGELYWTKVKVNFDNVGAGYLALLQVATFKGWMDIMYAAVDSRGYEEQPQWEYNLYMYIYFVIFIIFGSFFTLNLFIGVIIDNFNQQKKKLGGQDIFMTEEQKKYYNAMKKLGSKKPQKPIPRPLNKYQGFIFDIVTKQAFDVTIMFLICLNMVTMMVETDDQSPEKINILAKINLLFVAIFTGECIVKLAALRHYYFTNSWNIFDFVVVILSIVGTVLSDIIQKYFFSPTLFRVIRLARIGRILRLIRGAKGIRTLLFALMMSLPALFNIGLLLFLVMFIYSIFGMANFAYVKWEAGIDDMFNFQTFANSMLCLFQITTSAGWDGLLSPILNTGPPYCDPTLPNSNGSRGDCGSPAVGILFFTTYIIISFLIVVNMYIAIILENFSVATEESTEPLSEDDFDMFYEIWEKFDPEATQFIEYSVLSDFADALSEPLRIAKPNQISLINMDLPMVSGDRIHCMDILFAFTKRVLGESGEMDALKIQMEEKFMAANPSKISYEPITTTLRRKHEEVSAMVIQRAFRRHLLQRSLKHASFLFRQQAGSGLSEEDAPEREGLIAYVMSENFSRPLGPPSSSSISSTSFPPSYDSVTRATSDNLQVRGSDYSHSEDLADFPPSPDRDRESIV

Rattus norvegicus [9] = assay: Antinociceptive activity against Sprague-Dawley rat model of thermal stimuli induced nociception assessed as concentration required for maximal tail flick withdrawal latency administered subcutaneously as single dose measured up to 24 hrs by tail flick test; format: functional, organism-based
[10] = target: Sodium channel protein type 4 subunit alpha (Homo sapiens, UniProt P35499); assay: Inhibition of human Nav1.4 stably expressed in cells with train pulses to -20 mV at 0.1 Hz and holding potential of -95 mV by whole-cell Qube-automated patch clamp assay; format: cell-based
[11] = Half life in Wistar Han rat at 0.3 mg/kg, iv measured upto 24 hrs by LC/MS/MS analysis; format: ADME, organism-based; details: in vivo
[12] = Inhibition of mast cell degranulation in Wistar Han rat peritoneal lavage mast cells assessed as inhibition histamine release by measuring lowest concentration at which histamine release observed measured after 30 mins; format: functional; details: 0.5 h
[13] = target: Sodium channel protein type 9 subunit alpha (Rattus norvegicus, UniProt O08562); assay: Inhibition of rat Nav1.7 stably expressed in cells with train pulses to -20 mV at 0.1 Hz and holding potential of -90 mV by whole-cell QPatch HT assay; format: cell-based
[14] = target: T1, Sodium channel protein type 9 subunit alpha; assay: Inhibition of human Nav1.7 stably expressed in cells with train pulses to -20 mV at 0.1 Hz and holding potential of -95 mV by whole-cell QPatch HT assay; format: cell-based
[15] = target: Voltage-dependent L-type calcium channel subunit alpha-1C (Homo sapiens, UniProt Q13936); assay: Inhibition of human Cav1.2 stably expressed in HEK293 cells incubated for 30 mins in dark by Fluo-4 AM dye based FLIPR assay; format: cell-based
Rattus norvegicus [16] = assay: Antinociceptive activity against Sprague-Dawley rat model of thermal stimuli induced nociception assessed as increase in tail withdrawal latency administered subcutaneously as single dose measured up to 300 mins by tail flick test; format: functional, organism-based; details: dose 1-2 mg/kg, time min <=300
Rattus norvegicus [17] = assay: Antinociceptive activity against Sprague-Dawley rat model of thermal stimuli induced nociception assessed as concentration required for maximal tail flick withdrawal latency administered subcutaneously as single dose measured up to 300 mins by tail flick test; format: functional, organism-based; details: 5 h
Mast cell [18] = assay: Effect on mast cell degranulation in Wistar Han rat peritoneal lavage mast cells assessed as fold increase in histamine level by measuring histamine Cmax in plasma at 0.3 mg/kg, iv administered as bolus dose measured up to 24 hrs by LC/MS/MS analysis relative to control; format: functional; details: time hrs <=24

## CC(=O)N[C@H]1CSSC[C@@H]2NC(=O)[C@@H]3CSSC[C@@H](C(=O)N[C@@H](CCCCN)C(=O)N[C@@H](CCCCN)C(=O)N[C@@H](CCCCN)C(=O)N[C@@H](CC(C)C)C(=O)N[C@@H](Cc4c[nH]c5ccccc45)C(N)=O)NC(=O)[C@H](Cc4c[nH]c5ccccc45)NC(=O)[C@H](CC(C)C)NC(=O)[C@H](CCCCN)NC(=O)[C@H](CSSC[C@H](NC(=O)[C@@H]4CCCN4C(=O)[C@H](CCC(=O)O)NC(=O)[C@H](CC(C)C)NC(=O)[C@H](Cc4ccccc4)NC(=O)[C@H](CCCCN)NC(=O)[C@H](CCC(N)=O)NC1=O)C(=O)N[C@@H](CC(=O)O)C(=O)N[C@@H](CO)C(=O)N[C@@H](CCC(=O)O)C(=O)N[C@@H](CCCNC(=N)N)C(=O)N[C@@H](CCCCN)C(=O)N3)NC(=O)[C@H](CCC(=O)O)NC(=O)[C@H](CC(C)C)NC(=O)CNC(=O)[C@H](CCC(=O)O)NC2=O (Ac-CQKFLEPCDSERKCCEGLECKLWCKKKLW-NH2; disulfide 1-15, 8-20, 14-24)
[1]
  IC50: 183 nM
[2]
  fold change (FC): 50
[3]
  IC50: > 15000 nM
Rattus norvegicus [4]
  Activity: Dose-Dependent Effect
[5]
  IC50: > 17000 nM
Mast cell [6]
  Activity: inactive
[7]
  IC50: > 17000 nM
[8]
  IC50: > 15000 nM
Rattus norvegicus [9]
  EC50: 1620 nM
[10]
  IC50: > 17000 nM
[11]
  half-life: < 3 h
[12]
  LED: 30 µM
[13]
  IC50: 18.8 nM
[14]
  IC50: 133 nM
[15]
  IC50: > 30000 nM

## CSCC[C@@H]1NC(=O)CNC(=O)[C@H](CCC(=O)O)NC(=O)[C@@H]2CSSC[C@H](NC(=O)[C@@H](N)Cc3ccc(O)cc3)C(=O)N[C@@H](CCC(N)=O)C(=O)N[C@@H](CCCCN)C(=O)N[C@@H](Cc3c[nH]c4ccccc34)C(=O)N[C@@H](CCSC)C(=O)N[C@@H](Cc3c[nH]c4ccccc34)C(=O)N[C@@H]([C@@H](C)O)C(=O)N[C@H]3CSSC[C@H](NC(=O)[C@H](C(C)C)NC1=O)C(=O)N[C@@H](CCCNC(=N)N)C(=O)N[C@@H](CC(C)C)C(=O)N[C@@H](Cc1c[nH]c4ccccc14)C(=O)N[C@H](C(=O)N[C@@H](CCCCN)C(=O)N[C@@H](CCCCN)C(=O)N[C@@H](CCCCN)C(=O)N[C@@H](CC(C)C)C(=O)N[C@@H](Cc1c[nH]c4ccccc14)C(N)=O)CSSC[C@H](NC(=O)[C@H](CCCCN)NC(=O)[C@H](CCCNC(=N)N)NC(=O)[C@H](CCC(=O)O)NC(=O)[C@H](CO)NC(=O)[C@H](CC(=O)O)NC3=O)C(=O)N2
[2]
  fold change (FC): 50
[3]
  IC50: 22 nM
Rattus norvegicus [16]
  Activity: Dose-Dependent Effect
[5]
  IC50: 75 nM
[7]
  IC50: 1500 nM
[8]
  IC50: 180 nM
[10]
  IC50: 93 nM
Rattus norvegicus [17]
  EC50: 56 nM
[11]
  half-life: < 3 h
[12]
  LED: 0.37 µM
[13]
  IC50: 1.3 nM
[15]
  IC50: 1400 nM

## CC(C)C[C@@H]1NC(=O)CNC(=O)[C@H](CCC(=O)O)NC(=O)[C@@H]2CSSC[C@H](NC(=O)[C@@H](N)Cc3ccc(O)cc3)C(=O)N[C@@H](CCC(N)=O)C(=O)N[C@@H](CCCCN)C(=O)N[C@@H](Cc3ccccc3)C(=O)N[C@@H](CC(C)C)C(=O)N[C@@H](C)C(=O)N3CCC[C@H]3C(=O)N[C@H]3CSSC[C@H](NC(=O)[C@H](C(C)C)NC1=O)C(=O)N[C@@H](CCCNC(=N)N)C(=O)N[C@@H](CC(C)C)C(=O)N[C@@H](Cc1c[nH]c4ccccc14)C(=O)N[C@H](C(=O)N[C@@H](CCCCN)C(=O)N[C@@H](CCCCN)C(=O)N[C@@H](CCCCN)C(=O)N[C@@H](CC(C)C)C(=O)N[C@@H](Cc1c[nH]c4ccccc14)C(N)=O)CSSC[C@H](NC(=O)[C@H](CCCCN)NC(=O)[C@H](CCCNC(=N)N)NC(=O)[C@H](CCC(=O)O)NC(=O)[C@H](CO)NC(=O)[C@H](CC(=O)O)NC3=O)C(=O)N2 (H-YCQKFLAPCDSERKCCEGLVCRLWCKKKLW-NH2; disulfide 2-16, 9-21, 15-25)
[1]
  IC50: 32 nM
[2]
  fold change (FC): 50
[3]
  IC50: 780 nM
Rattus norvegicus [4]
  Activity: Dose-Dependent Effect
[5]
  IC50: 1190 nM
[7]
  IC50: > 17000 nM
[8]
  IC50: 2900 nM
Rattus norvegicus [9]
  EC50: 294 nM
[10]
  IC50: 1770 nM
Mast cell [18]
  fold change (FC): 12
[11]
  half-life: < 3 h
[12]
  LED: 3.3 µM
[13]
  IC50: 8.3 nM
[14]
  IC50: 5.9 nM
[15]
  IC50: > 30000 nM

## CC(=O)N[C@H]1CSSC[C@@H]2NC(=O)[C@@H]3CSSC[C@@H](C(=O)N[C@@H](CCCCN)C(=O)N[C@@H](CCCCN)C(=O)N[C@@H](CCCCN)C(=O)N[C@@H](CC(C)C)C(=O)N[C@@H](Cc4c[nH]c5ccccc45)C(N)=O)NC(=O)[C@H](Cc4c[nH]c5ccccc45)NC(=O)[C@H](CC(C)C)NC(=O)[C@H](CCCNC(=N)N)NC(=O)[C@H](CSSC[C@H](NC(=O)[C@@H]4CCCN4C(=O)[C@H](CCCCN)NC(=O)[C@H](CC(C)C)NC(=O)[C@H](Cc4ccccc4)NC(=O)[C@H](CCC(=O)O)NC(=O)[C@H](CCC(N)=O)NC1=O)C(=O)N[C@@H](CC(=O)O)C(=O)N[C@@H](CO)C(=O)N[C@@H](CCC(=O)O)C(=O)N[C@@H](CCCNC(=N)N)C(=O)N[C@@H](CCCCN)C(=O)N3)NC(=O)[C@H](C(C)C)NC(=O)[C@H](CC(C)C)NC(=O)CNC(=O)[C@H](CCC(=O)O)NC2=O (Ac-CQEFLKPCDSERKCCEGLVCRLWCKKKLW-NH2; disulfide 1-15, 8-20, 14-24)
[1]
  IC50: 27 nM
[5]
  IC50: 4830 nM
[10]
  IC50: 4140 nM
[12]
  LED: 10 µM

## CC(=O)N[C@H]1CSSC[C@@H]2NC(=O)[C@@H]3CSSC[C@@H](C(=O)N[C@@H](CCCCN)C(=O)N[C@@H](CCCCN)C(=O)N[C@@H](CCCCN)C(=O)N[C@@H](CC(C)C)C(=O)N[C@@H](Cc4c[nH]c5ccccc45)C(N)=O)NC(=O)[C@H](Cc4c[nH]c5ccccc45)NC(=O)[C@H](CC(C)C)NC(=O)[C@H](CCCNC(=N)N)NC(=O)[C@H](CSSC[C@H](NC(=O)[C@@H]4CCCN4C(=O)[C@H](CCC(=O)O)NC(=O)[C@H](CC(C)C)NC(=O)[C@H](Cc4ccccc4)NC(=O)[C@H](CCCCN)NC(=O)[C@H](CCC(N)=O)NC1=O)C(=O)N[C@@H](CC(=O)O)C(=O)N[C@@H](CO)C(=O)N[C@@H](CCC(=O)O)C(=O)N[C@@H](CCCNC(=N)N)C(=O)N[C@@H](CCCCN)C(=O)N3)NC(=O)[C@H](C(C)C)NC(=O)[C@H](CC(C)C)NC(=O)CNC(=O)[C@H](CCC(=O)O)NC2=O (Ac-CQKFLEPCDSERKCCEGLVCRLWCKKKLW-NH2; disulfide 1-15, 8-20, 14-24)
[1]
  IC50: 43 nM
[5]
  IC50: 3940 nM
[10]
  IC50: 4770 nM
[12]
  LED: 3.3 µM

## CC(=O)N[C@H]1CSSC[C@@H]2NC(=O)[C@@H]3CSSC[C@@H](C(=O)N[C@@H](CCCCN)C(=O)N[C@@H](CCCCN)C(=O)N[C@@H](CCCCN)C(=O)N[C@@H](CC(C)C)C(=O)N[C@@H](Cc4c[nH]c5ccccc45)C(N)=O)NC(=O)[C@H](Cc4c[nH]c5ccccc45)NC(=O)[C@H](CC(C)C)NC(=O)[C@H](CCCCN)NC(=O)[C@H](CSSC[C@H](NC(=O)[C@@H]4CCCN4C(=O)[C@H](C)NC(=O)[C@H](CC(C)C)NC(=O)[C@H](Cc4ccccc4)NC(=O)[C@H](CCCCN)NC(=O)[C@H](CCC(N)=O)NC1=O)C(=O)N[C@@H](CC(=O)O)C(=O)N[C@@H](CO)C(=O)N[C@@H](CCC(=O)O)C(=O)N[C@@H](CCCNC(=N)N)C(=O)N[C@@H](CCCCN)C(=O)N3)NC(=O)[C@H](CCC(=O)O)NC(=O)[C@H](CC(C)C)NC(=O)CNC(=O)[C@H](CCC(=O)O)NC2=O (Ac-CQKFLAPCDSERKCCEGLECKLWCKKKLW-NH2; disulfide 1-15, 8-20, 14-24)
[1]
  IC50: 63 nM
[5]
  IC50: > 17000 nM
[10]
  IC50: > 17000 nM
[12]
  LED: 10 µM
